Read-outs that look alike come from different tables or passages of the source.
What was measured:
Type in all cases: cell-based
[1] = test system: Corynebacterium ammoniagenes LK 40-2 (VKPM B-7811); assay: Growth of the strain in the presence of pyrimidine analogues
Protocol: Corynebacterium ammoniagenes VKPM B-6307 was treated with 50 μg/ml of NTG for 20 minutes followed by ampicillin-enrichment procedure for obtaining mutants which could not utilize uridine effectively as a sole carbon source (uridine was added into liquid medium A of Table 2 instead of glucose). The obtained mutant cells were plated on a medium B of Table 2 supplemented with guanine (100 μg/ml), arginine (500 μg/ml), casamino acids (200 μg/ml) and 100 μg/ml of 5-fluorouridine.
The inoculated plates were incubated at 30° C. for 3 days.
The extent of resistance to various pyrimidine analogues of this strain as well as that of the parent strain VKPM B-6307 is shown in Table 4.
(§1) Extent of resistance of this strain to various pyrimidine analogues as well as that of the parent strains LK 40-2 and LK 75-15 is shown in Table 11.

[2] = test system: Corynebacterium ammoniagenes LK 75-66 (VKPM B-7813); assay: as above
Source text: as §1

[3] = test system: Corynebacterium ammoniagenes LK 75-15 (VKPM B-7812); assay: as above
Source text: as §1

[4] = test system: Corynebacterium ammoniagenes LK 75-15 (VKPM B-7812); assay: as above; remark: listed apart in the source
[5] = test system: Corynebacterium ammoniagenes ATCC 6872; assay: as above; conditions: basal agar medium A
[6] = test system: Corynebacterium ammoniagenes VKPM B-6307; conditions: for Growth of the strains B-6307: basal agar medium A; for Growth of the strain VKPM B-6307 With addition (medium B): medium B (guanine, arginine, casamino acid added)
[7] = medium B with 100 μg/ml analogue, 30° C., 3 days

O=c1cn[nH]c(=O)[nH]1 [6-Azauracil]
Growth of the strain LK 40-2 ([1]; Table 4, analogue 1000 μg/ml): +
Growth of the strain LK 40-2 ([1]; Table 11, analogue 1000 μg/ml): +
Growth of the Strain LK 75-66 ([2]; Table 11, analogue 1000 μg/ml): +
Growth of the Strain LK 75-15 ([3]; Table 11, analogue 1000 μg/ml): +
Growth of the Strain LK 75-15 ([4]; Table 8, analogue 1000 μg/ml): +
Growth of the strains ATCC6872 ([5]; analogue 500 μg/ml): −
Growth of the strains ATCC6872 ([5]; analogue 1000 μg/ml): −
Growth of the strains ATCC6872 ([5]; analogue 3000 μg/ml): −
Growth of the strains ATCC6872 ([5]; analogue 5000 μg/ml): −
Growth of the strain B-6307 ([6]; Table 4, analogue 1000 μg/ml): −
Growth of the strain B-6307 ([6]; Table 8, analogue 1000 μg/ml): −
Growth of the strains B-6307 ([6]; analogue 500 μg/ml): +
Growth of the strains B-6307 ([6]; analogue 1000 μg/ml): +
Growth of the strains B-6307 ([6]; analogue 3000 μg/ml): +
Growth of the strains B-6307 ([6]; analogue 5000 μg/ml): +

O=c1[nH]c(=O)n([C@@H]2O[C@H](CO)[C@@H](O)[C@H]2O)cc1F [5-Fluouridine]
Growth of the strain LK 40-2 ([1]; Table 4, analogue 100 μg/ml): +
Growth of the strain LK 40-2 ([1]; Table 4, analogue 300 μg/ml): +
Growth of the strain LK 40-2 ([1]; Table 4, analogue 500 μg/ml): +
Growth of the strain LK 40-2 ([1]; Table 4, analogue 1000 μg/ml): +
Growth of the strain LK 40-2 ([1]; Table 11, analogue 100 μg/ml): +
Growth of the strain LK 40-2 ([1]; Table 11, analogue 300 μg/ml): +
Growth of the strain LK 40-2 ([1]; Table 11, analogue 500 μg/ml): +
Growth of the strain LK 40-2 ([1]; Table 11, analogue 1000 μg/ml): +
growth of strain LK 40-2 on supplemented medium [1, 7]: capable of growing
Growth of the Strain LK 75-66 ([2]; Table 11, analogue 100 μg/ml): +
Growth of the Strain LK 75-66 ([2]; Table 11, analogue 300 μg/ml): +
Growth of the Strain LK 75-66 ([2]; Table 11, analogue 500 μg/ml): +
Growth of the Strain LK 75-66 ([2]; Table 11, analogue 1000 μg/ml): −
Growth of the Strain LK 75-15 ([3]; Table 11, analogue 100 μg/ml): +
Growth of the Strain LK 75-15 ([3]; Table 11, analogue 1000 μg/ml): −
Growth of the Strain LK 75-15 ([4]; Table 8, analogue 100 μg/ml): +
Growth of the Strain LK 75-15 ([4]; Table 8, analogue 300 μg/ml): +
Growth of the Strain LK 75-15 ([4]; Table 8, analogue 500 μg/ml): −
Growth of the Strain LK 75-15 ([4]; Table 8, analogue 1000 μg/ml): −
Growth of the Strain LK 75-15 ([4]; Table 11, analogue 300 μg/ml): +
Growth of the Strain LK 75-15 ([4]; Table 11, analogue 500 μg/ml): −
Growth of the strains ATCC6872 ([5]; analogue 100 μg/ml): −
Growth of the strains ATCC6872 ([5]; analogue 200 μg/ml): −
Growth of the strains ATCC6872 ([5]; analogue 400 μg/ml): −
Growth of the strains ATCC6872 ([5]; analogue 600 μg/ml): −
Growth of the strain B-6307 ([6]; Table 4, analogue 100 μg/ml): −
Growth of the strain B-6307 ([6]; Table 4, analogue 300 μg/ml): −
Growth of the strain B-6307 ([6]; Table 4, analogue 500 μg/ml): −
Growth of the strain B-6307 ([6]; Table 4, analogue 1000 μg/ml): −
Growth of the strain B-6307 ([6]; Table 8, analogue 100 μg/ml): −
Growth of the strain B-6307 ([6]; Table 8, analogue 300 μg/ml): −
Growth of the strain B-6307 ([6]; Table 8, analogue 500 μg/ml): −
Growth of the strain B-6307 ([6]; Table 8, analogue 1000 μg/ml): −
Growth of the strains B-6307 ([6]; analogue 100 μg/ml): +
Growth of the strain VKPM B-6307 No addition (medium A) ([6]; analogue 100 μg/ml): +
Growth of the strain VKPM B-6307 With addition (medium B) ([6]; analogue 100 μg/ml): −
Growth of the strains B-6307 ([6]; analogue 200 μg/ml): +
Growth of the strain VKPM B-6307 No addition (medium A) ([6]; analogue 200 μg/ml): +
Growth of the strain VKPM B-6307 With addition (medium B) ([6]; analogue 200 μg/ml): −
Growth of the strains B-6307 ([6]; analogue 400 μg/ml): +
Growth of the strain VKPM B-6307 No addition (medium A) ([6]; analogue 500 μg/ml): +
Growth of the strain VKPM B-6307 With addition (medium B) ([6]; analogue 500 μg/ml): −
Growth of the strains B-6307 ([6]; analogue 600 μg/ml): +
Growth of the strain VKPM B-6307 No addition (medium A) ([6]; analogue 1000 μg/ml): +
Growth of the strain VKPM B-6307 With addition (medium B) ([6]; analogue 1000 μg/ml): −
growth of the parent strain on supplemented medium [6, 7]: could not grow

O=c1cc[nH]c(=S)[nH]1 [2-Thiouracil]
Growth of the strain LK 40-2 ([1]; Table 4, analogue 1000 μg/ml): +
Growth of the strain LK 40-2 ([1]; Table 11, analogue 1000 μg/ml): +
Growth of the Strain LK 75-66 ([2]; Table 11, analogue 1000 μg/ml): +
Growth of the Strain LK 75-15 ([3]; Table 11, analogue 1000 μg/ml): +
Growth of the Strain LK 75-15 ([4]; Table 8, analogue 1000 μg/ml): +
Growth of the strains ATCC6872 ([5]; analogue 500 μg/ml): −
Growth of the strains ATCC6872 ([5]; analogue 1000 μg/ml): −
Growth of the strains ATCC6872 ([5]; analogue 3000 μg/ml): −
Growth of the strains ATCC6872 ([5]; analogue 5000 μg/ml): −
Growth of the strain B-6307 ([6]; Table 4, analogue 1000 μg/ml): −
Growth of the strain B-6307 ([6]; Table 8, analogue 1000 μg/ml): −
Growth of the strains B-6307 ([6]; analogue 500 μg/ml): +
Growth of the strains B-6307 ([6]; analogue 1000 μg/ml): +
Growth of the strains B-6307 ([6]; analogue 3000 μg/ml): +
Growth of the strains B-6307 ([6]; analogue 5000 μg/ml): +

O=c1[nH]cc(F)c(=O)[nH]1 [5-Fluorouracil]
Growth of the strain LK 40-2 ([1]; Table 4, analogue 100 μg/ml): +
Growth of the strain LK 40-2 ([1]; Table 4, analogue 300 μg/ml): +
Growth of the strain LK 40-2 ([1]; Table 4, analogue 500 μg/ml): +
Growth of the strain LK 40-2 ([1]; Table 4, analogue 1000 μg/ml): +
Growth of the strain LK 40-2 ([1]; Table 11, analogue 100 μg/ml): +
Growth of the strain LK 40-2 ([1]; Table 11, analogue 300 μg/ml): +
Growth of the strain LK 40-2 ([1]; Table 11, analogue 500 μg/ml): +
Growth of the strain LK 40-2 ([1]; Table 11, analogue 1000 μg/ml): +
Growth of the Strain LK 75-66 ([2]; Table 11, analogue 100 μg/ml): +
Growth of the Strain LK 75-66 ([2]; Table 11, analogue 300 μg/ml): +
Growth of the Strain LK 75-66 ([2]; Table 11, analogue 500 μg/ml): −
Growth of the Strain LK 75-66 ([2]; Table 11, analogue 1000 μg/ml): −
Growth of the Strain LK 75-15 ([3]; Table 11, analogue 100 μg/ml): +
Growth of the Strain LK 75-15 ([3]; Table 11, analogue 300 μg/ml): −
Growth of the Strain LK 75-15 ([3]; Table 11, analogue 500 μg/ml): −
Growth of the Strain LK 75-15 ([3]; Table 11, analogue 1000 μg/ml): −
Growth of the Strain LK 75-15 ([4]; Table 8, analogue 100 μg/ml): +
Growth of the Strain LK 75-15 ([4]; Table 8, analogue 300 μg/ml): −
Growth of the Strain LK 75-15 ([4]; Table 8, analogue 500 μg/ml): −
Growth of the Strain LK 75-15 ([4]; Table 8, analogue 1000 μg/ml): −
Growth of the strains ATCC6872 ([5]; analogue 50 μg/ml): −
Growth of the strains ATCC6872 ([5]; analogue 100 μg/ml): −
Growth of the strains ATCC6872 ([5]; analogue 200 μg/ml): −
Growth of the strains ATCC6872 ([5]; analogue 600 μg/ml): −
Growth of the strain B-6307 ([6]; Table 4, analogue 100 μg/ml): −
Growth of the strain B-6307 ([6]; Table 4, analogue 300 μg/ml): −
Growth of the strain B-6307 ([6]; Table 4, analogue 500 μg/ml): −
Growth of the strain B-6307 ([6]; Table 4, analogue 1000 μg/ml): −
Growth of the strain B-6307 ([6]; Table 8, analogue 100 μg/ml): −
Growth of the strain B-6307 ([6]; Table 8, analogue 300 μg/ml): −
Growth of the strain B-6307 ([6]; Table 8, analogue 500 μg/ml): −
Growth of the strain B-6307 ([6]; Table 8, analogue 1000 μg/ml): −
Growth of the strains B-6307 ([6]; analogue 50 μg/ml): +
Growth of the strains B-6307 ([6]; analogue 100 μg/ml): +
Growth of the strain VKPM B-6307 No addition (medium A) ([6]; analogue 100 μg/ml): +
Growth of the strain VKPM B-6307 With addition (medium B) ([6]; analogue 100 μg/ml): −
Growth of the strains B-6307 ([6]; analogue 200 μg/ml): +
Growth of the strain VKPM B-6307 No addition (medium A) ([6]; analogue 200 μg/ml): +
Growth of the strain VKPM B-6307 With addition (medium B) ([6]; analogue 200 μg/ml): −
Growth of the strain VKPM B-6307 No addition (medium A) ([6]; analogue 500 μg/ml): +
Growth of the strain VKPM B-6307 With addition (medium B) ([6]; analogue 500 μg/ml): −
Growth of the strains B-6307 ([6]; analogue 600 μg/ml): +
Growth of the strain VKPM B-6307 No addition (medium A) ([6]; analogue 1000 μg/ml): +
Growth of the strain VKPM B-6307 With addition (medium B) ([6]; analogue 1000 μg/ml): −

Reference: patent US6344344B1, “Method for producing uridine-5'-monophosphate by fermentation using mutant strains of coryneform bacteria” (Ajinomoto Co., Inc., priority 1999, dated 2002)
